Here are results for two compounds from patent US20040019070A1, “Pyrrole-condensed morphinoid derivatives” (priority 2000, published 2004).

As a reminder, the Ki is a measure of affinity in units of concentration, obtained from inhibition or displacement. Higher therefore signals weaker binding.

The target in assay [1] is T1, human delta opioid receptor (Homo sapiens, UniProt P41143).
T1 construct: expressed in transfected cells; membranes prepared
Description: radioligand binding assay, [3H]-DADLE, cloned human delta opioid receptor in CHO cells. How it is done:
The activity of the compounds of the present invention as selective delta ligands is determined in radioligand binding assays as described below.
(§1) The activity of the compounds of the present invention as selective delta ligands is determined in radioligand binding assays using cloned human delta, mu and kappa opioid receptors stably expressed in cell lines as described below.
(§2) CHO cells were subjected to stable transfection with cDNA encoding the human delta and mu opioid receptors. Clones were grown in suspension culture in serum free media. Selection was performed by growth in the absence of nucleotides.
(§3) Membranes were prepared as previously described (J. Med. Chem. 1997, 40, 3192 ). The binding of the preferential delta ligand [^3H]-[D-Ala^2,D-Leu^5]-enkephalin (DADLE) was evaluated at its KD concentration (0.7 nM). The binding of the mu ligand [^3H]-DAMGO (Eur. J. Pharmacol., 1989, 166, 213) and of the kappa ligand [^3H]-U69593 (Excerpta Medica, 1990, 211) were carried out at 0.5 nM. Non specific binding was determined in the presence of 10 uM of naloxone. Binding data were expressed as percentage of inhibition and fitted the following equation: f(x)=100·X/(IC50+X) where X is the cold drug concentration value. The IC50 values obtained were used to calculate the inhibitory constants (Ki) accordingly to the Cheng and Prusoff relation (Biochem. Pharmacol., 1973, 22, 3099).

In another assay the target is T2, human mu opioid receptor (Homo sapiens, UniProt P35372).
T2 construct: expressed in transfected cells; membranes prepared
T2 sequence (P35372 whole entry): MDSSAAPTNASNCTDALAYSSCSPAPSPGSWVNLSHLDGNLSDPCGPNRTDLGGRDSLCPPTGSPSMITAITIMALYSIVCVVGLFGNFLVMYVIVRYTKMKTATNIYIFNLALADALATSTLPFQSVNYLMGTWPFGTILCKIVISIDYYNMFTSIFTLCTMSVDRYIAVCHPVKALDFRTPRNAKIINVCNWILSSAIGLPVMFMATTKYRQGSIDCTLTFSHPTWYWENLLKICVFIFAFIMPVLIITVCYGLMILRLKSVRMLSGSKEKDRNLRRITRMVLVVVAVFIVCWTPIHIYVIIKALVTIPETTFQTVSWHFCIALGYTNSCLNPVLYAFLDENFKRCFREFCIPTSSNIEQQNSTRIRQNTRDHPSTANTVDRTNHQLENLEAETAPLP
Description: radioligand binding assay, [3H]-DAMGO, cloned human mu opioid receptor in CHO cells. The note with it: ratio of Ki at mu ([3H]-DAMGO 0.5 nM) to Ki at delta. The method, then:
as §1, §2, §3

T1 sequence (P41143 whole entry): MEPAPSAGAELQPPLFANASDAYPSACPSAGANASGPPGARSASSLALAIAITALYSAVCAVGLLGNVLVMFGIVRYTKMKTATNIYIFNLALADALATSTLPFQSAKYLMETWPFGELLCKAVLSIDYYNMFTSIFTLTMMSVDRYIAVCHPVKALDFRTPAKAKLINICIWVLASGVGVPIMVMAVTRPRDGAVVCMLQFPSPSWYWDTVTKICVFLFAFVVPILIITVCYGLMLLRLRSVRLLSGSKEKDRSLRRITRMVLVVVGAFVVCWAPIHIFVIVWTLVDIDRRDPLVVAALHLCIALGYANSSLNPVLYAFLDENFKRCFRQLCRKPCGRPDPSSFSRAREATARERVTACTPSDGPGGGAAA

Take `COc1ccc2c3c1O[C@H]1c4[nH]c(C(=O)N5C(C)(C)CCCC5(C)C)c(C)c4C[C@H]4[C@@H](C2)N(C)CC[C@]314` [Example 1]: the Ki in assay [1] was 0.3 nM. Moreover, the “Ki mu/Ki delta” value on human mu opioid receptor was found to be 267.
As for `COc1ccc2c3c1O[C@H]1c4[nH]c(C(=O)N5CCC(C(=O)c6ccccc6)CC5)c(C)c4C[C@H]4[C@@H](C2)N(C)CC[C@]314` [Example 6], affinity in assay [1] was put at a Ki of 1.4 nM. Further, the “Ki mu/Ki delta” value on human mu opioid receptor is reported as 220.
